The test system of data set [1] is mouse. To be noted: Carcinogenicity; other; Oral; Feed; dose end: 18 month; group: systemic; systemic / in life observation / body weight / body weight.
In data set [2] the test system is mouse. Particulars: Carcinogenicity; other; Oral; Feed; dose end: 18 month; group: systemic; systemic / in life observation / body weight / body weight. This is another data set of the same source.
The test system of data set [3] is rat. Particulars: Combined chronic toxicity/carcinogenicity, other, Oral, Feed, dose end: 24 month, group: systemic.
Data set [4] concerns rabbit. Particulars: Prenatal developmental toxicity study, new zealand white, Oral, Capsule, dose end: 18 GD.
The test system of data set [5] is rat. To be noted: Multigenerational reproductive toxicity study, sprague dawley, Oral, Feed, dose end: 2 generation.
The subject of data set [6] is rabbit. Particulars: Prenatal developmental toxicity study, new zealand white, Oral, Capsule, dose end: 18 GD. This is another data set of the same source.
The subject of data set [7] is rat. Particulars: Peri- and post-natal toxicity study (Segment III), sprague dawley, Oral, Gavage/Intubation, dose end: 54 PND.
The subject of data set [8] is rat. Particulars: Other (NonGuideline or Guideline Not Listed), sprague dawley, Oral, Gavage/Intubation, dose end: 20 PND, group: cannot be grouped.
The test system of data set [9] is mouse. To be noted: Subchronic oral toxicity in rodents, cd1, Feed, dose end: 13 week, group: systemic, systemic / hematology / leukocyte (wbc) count differential / leukocyte (wbc) + systemic / hematology / lymphocyte / lymphocyte + systemic / ….
Data set [10] relates to mouse. To be noted: Carcinogenicity, cd1, Oral, Feed, dose end: 18 month.
The subject of another data set is dog. To be noted: Chronic toxicity, beagle, Oral, Feed, dose end: 60 week, group: cholinesterase.
For data set [11], the system named is rat. To be noted: Combined chronic toxicity/carcinogenicity, sprague dawley, Oral, Feed, dose end: 24 month, group: systemic.
Where [12] appears, read: systemic / organ weight / kidney / absolute + systemic / organ weight / kidney / relative to body weight.
[13] abbreviates: group: developmental, systemic / in life observation / body weight / fetal weight.
[14] abbreviates: group: maternal, systemic / in life observation / clinical signs / anorexia + systemic / in life observation / clinical signs / no feces + systemic / in life….
The mark [15] stands for this setting: group: offspring, systemic / in life observation / body weight / offspring (pup) weight + systemic / in life observation / body weight / offspring (pup) ….
Setting [16] is: group: parental, systemic / in life observation / body weight / body weight + systemic / in life observation / body weight / body weight gain + systemic / in….
Where [17] appears, read: group: parental, systemic / in life observation / body weight / body weight gain.
Setting [18] is: group: maternal, systemic / in life observation / clinical signs / anorexia + systemic / pathology gross / stomach / fluid contents + systemic / pathology ….
Setting [19] is: group: developmental, developmental / developmental landmark / preputial separation / preputial separation.
The mark [20] stands for this setting: group: parental, systemic / organ weight / [other] / absolute + systemic / organ weight / adrenal gland / absolute + systemic / organ weight / epididymis / ….
Where [21] appears, read: developmental / developmental landmark / preputial separation / preputial separation.
[22] abbreviates: developmental / developmental malformation / general / [other] + developmental / developmental malformation / penis / [other] + ….
Where [23] appears, read: group: cholinesterase, cholinesterase / cholinesterase / cholinesterase / brain cholinesterase (che) + cholinesterase / cholinesterase / cholinesterase / ….
Where [24] appears, read: group: systemic, systemic / in life observation / body weight / body weight gain + systemic / in life observation / food consumption / food consumption + ….
Setting [25] is: cholinesterase / cholinesterase / cholinesterase / erythrocyte cholinesterase (che) + cholinesterase / cholinesterase / cholinesterase / ….
Where [26] appears, read: cholinesterase / cholinesterase / cholinesterase / plasma cholinesterase (che).
The mark [27] stands for this setting: systemic / in life observation / body weight / body weight + systemic / in life observation / body weight / body weight gain + systemic / ….

The values that follow come from EPA's ToxRefDB 2.

Each structure is given as a SMILES string.

One may read the LOAEL as the lowest dose or exposure tested at which an adverse effect was seen. Usually NOAEL stands for the highest tested level that showed no adverse finding. Consider `CC(C)([CH2][Sn]([CH2]C(C)(C)c1ccccc1)([CH2]C(C)(C)c1ccccc1)[O][Sn]([CH2]C(C)(C)c1ccccc1)([CH2]C(C)(C)c1ccccc1)[CH2]C(C)(C)c1ccccc1)c1ccccc1` [Fenbutatin oxide], for which the LEL with mouse [1] stood at 45 mg/kg/day; in the data set on mouse [2], 45 mg/kg/day; in the data set with rat [3] (setting [12]), 2.5 mg/kg/day; in the data set on rabbit [4] (setting [13]), 10 mg/kg/day; in the data set on rabbit [4] (setting [14]) it was 5 mg/kg/day; in the data set on rat [5] (group: offspring, systemic / in life observation / body weight / offspring (pup) weight), 5.92 mg/kg/day. In addition, the LEL in the data set with rat [5] (setting [17]) was determined as 2.39 mg/kg/day; in the data set with rabbit [6] (setting [13]), 10 mg/kg/day; in the data set on rabbit [6] (setting [18]) it was 5 mg/kg/day. Besides, the LOAEL in the data set with mouse [1] came out at 45 mg/kg/day; with mouse [2], 45 mg/kg/day; in the data set on rat [3] (systemic / clinical chemistry / alkaline phosphatase (alp/alk) / alkaline phosphatase (alp/alk)), 15 mg/kg/day; in the data set on rabbit [4] (setting [13]), 10 mg/kg/day; in the data set on rabbit [4] (setting [14]), 5 mg/kg/day; with rat [5] (setting [15]), 17.4 mg/kg/day. Besides, the LOAEL was found to be 30 mg/kg/day in the data set on rat [5] (setting [16]), 10 mg/kg/day in the data set on rabbit [6] (setting [13]) and 5 mg/kg/day in the data set with rabbit [6] (setting [18]). In addition, the NEL in the data set on mouse [1] was 15 mg/kg/day; in the data set with mouse [2], 15 mg/kg/day; in the data set on rat [3] (setting [12]), less than 2.5 mg/kg/day; in the data set with rabbit [4] (setting [13]), 5 mg/kg/day; in the data set with rabbit [4] (setting [14]), 1 mg/kg/day; with rat [5] (setting [15]), 3.18 mg/kg/day. Moreover, the NEL was less than 2.39 mg/kg/day with rat [5] (setting [17]), 5 mg/kg/day in the data set with rabbit [6] (setting [13]) and 1 mg/kg/day in the data set with rabbit [6] (setting [18]). For the same compound, the NOAEL in the data set on mouse [1] worked out at 15 mg/kg/day; with mouse [2] it was 15 mg/kg/day; with rat [3] (systemic / clinical chemistry / alkaline phosphatase (alp/alk) / alkaline phosphatase (alp/alk) + systemic / clinical chemistry / urea …) it was 5 mg/kg/day; with rabbit [4] (setting [13]), 5 mg/kg/day; in the data set on rabbit [4] (setting [14]), 1 mg/kg/day; with rat [5] (setting [15]) it was 5.2 mg/kg/day. Besides, the no observed adverse effect level (NOAEL) in the data set with rat [5] (setting [16]) is 14.8 mg/kg/day; in the data set on rabbit [6] (setting [13]), 5 mg/kg/day; in the data set on rabbit [6] (setting [18]) it was 1 mg/kg/day.

On to `CC(C)C(=O)Nc1ccc([N+](=O)[O-])c(C(F)(F)F)c1` [Flutamide], for which, in the data set on rat [7] (setting [19]), the LEL turned out to be 25 mg/kg/day, the LOAEL was more than 50 mg/kg/day, the NEL is less than 25 mg/kg/day and the NOAEL is not below 50 mg/kg/day. Moreover, in the data set with rat [7] (setting [20]), the LEL was 25 mg/kg/day, the LOAEL is more than 50 mg/kg/day, the NEL is less than 25 mg/kg/day and the NOAEL is not below 50 mg/kg/day. For the same compound, in the data set on rat [8] (setting [21]), the LEL was found to be 0.4 mg/kg/day and the NEL is less than 0.4 mg/kg/day. Further, in the data set with rat [8] (setting [22]), the lowest observed adverse effect level (LOAEL) was more than 10 mg/kg/day and the no-observed-adverse-effect level (NOAEL) was not below 10 mg/kg/day.

`COc1cc(OC)nc(NC(=O)NS(=O)(=O)c2cc(NC=O)ccc2C(=O)N(C)C)n1` [Foramsulfuron]: in the data set with mouse [9], the LEL was found to be 1000 mg/kg/day, the lowest observed adverse effect level (LOAEL) was more than 1000 mg/kg/day, the NEL came to 498 mg/kg/day and the NOAEL is not below 1000 mg/kg/day.

For the compound `CCOP(=S)(OCC)Oc1nc(Cl)n(C(C)C)n1` [Isazofos], the LEL with mouse [10] (setting [23]) was 4.5 mg/kg/day; with mouse [10] (setting [24]), 37.5 mg/kg/day; in the data set with dog (setting [26]), 0.0015 mg/kg/day; with rat [11] (setting [27]), 10 mg/kg/day. The LOAEL with mouse [10] (setting [23]) was 4.5 mg/kg/day; in the data set on mouse [10] (setting [24]), 37.5 mg/kg/day; with dog (setting [25]), more than 1.61 mg/kg/day; with rat [11] (systemic / in life observation / body weight / body weight + systemic / in life observation / body weight / body weight gain) it was 10 mg/kg/day. Besides, the NEL is 0.15 mg/kg/day in the data set with mouse [10] (setting [23]), 4.5 mg/kg/day in the data set on mouse [10] (setting [24]), less than 0.0015 mg/kg/day in the data set on dog (setting [26]) and 0.05 mg/kg/day in the data set on rat [11] (setting [27]). The NOAEL in the data set with mouse [10] (setting [23]) was 0.15 mg/kg/day; in the data set on mouse [10] (setting [24]) it was 4.5 mg/kg/day; with dog (setting [25]), not below 1.61 mg/kg/day; in the data set on rat [11] (setting [27]) it was 0.05 mg/kg/day.
